Columns and labels:
[1] = Time course analysis of mutant enzymes (thymidine phosphorylation); assay type: biochemical; conditions: 30° C., 0-30 minutes; adjusted to protein synthesis
Method: For the high-activity mutant enzymes, unlabeled translation products were diluted 1/9 and incubated for 0, 5, 10, 20, or 30 minutes at 30° C.
The low-activity mutants were diluted 1/5, and the rate of phosphorylation as a function of time was also determined.

KY895 = assay: Secondary screen: colony formation on acyclovir, AZT, TK selection and LB plates; assay type: cell-based, E. coli; design: key: ++: the same number of colonies were observed as compared to control plates; +: fewer (<20% those observed with pMCC) and generally smaller (˜50% smaller diameter) colonies were observed as compared to control plates; −: no colonies were observed; conditions: for colonies on AZT plates: 1 μg/mL thymidine+0.05 μg/mL AZT; for colonies on AZT plates / colonies on ACV plates / colonies on TK selection plates, 37° C.: 37° C.; for colonies on ACV plates: 1 μg/mL thymidine+1 μg/mL acyclovir; for colonies on LB plates: LB+carb50 plates
Method: Mutant cultures were also spread onto duplicate TK selection and LB+carb50 plates. One set of TK selection plates and LB+carb50 plates were incubated at 42° C. All other plates were incubated at 37° C. After 16-24 hours the plates were scored.

[2] = Substrate specificity assay of cell-free translation products, deoxycytidine; assay type: biochemical
Text: (§1) No significant difference in phosphorylation efficiency was observed between pT7:MCC and pT7:HSVTKII when thymidine (1.3-fold), deoxycytidine (1.3-fold), GCV (0.8-fold), ACV (0.95-fold), or AZT (1.1-fold) were used as substrate. Furthermore, Sanderson et al. (J. Mol. Biol. 202:917-919, 1988) reported that the Km for thymidine and ATP and the Vmax of TK purified from E. coli harboring pHETK2 (the parent plasmid of pMCC) and HSV-1-infected cells were indistinguishable. Therefore, the alterations observed in the properties of the mutant TKs can be attributed to the nucleotide substitutions within the target region and that any differences between the vectors (pT7:MCC and pT7:HSVTKII) exerted only minor changes in catalytic properties.
(§2) Three of the mutants (P155A/F161V, F161I and F161C) were assayed in triplicate for the relative levels of phosphorylation using thymidine, deoxycytidine, ACV, GCV, or AZT as substrates. Briefly, forty-eight […] of each tritiated substrate was used in each assay reaction. Translation products were diluted for each nucleoside assay as follows (translation/H2O): 1/100, thymidine; 2/3, deoxycytidine, GCV, and AZT; 4/1, ACV. Each set of assays was incubated for 2 hours at 30° C. and the amount of phosphorylated product determined.

[3] = Substrate specificity assay of cell-free translation products, ACV; assay type: biochemical
Text: as §1, §2

[4] = assay type: biochemical; conditions: for thermal stability after 42° C. preincubation compared to HSVTKII: cell-free translation products
Method: To substantiate this observation, cell-free translation products were incubated at 42° C. for increasing times prior to being assayed for enzyme activity. Briefly, cell free translation (“CFT”) products of each high-activity mutant, -RNA, and HSVTKII samples were diluted 1/9 and incubated for 0, 5, 10, and 20 minutes at 42° C. The preincubated samples were then assayed for 5 minutes (P155A/F161V and F1611) or 20 minutes (-RNA, HSVTKII, F161C, and D162E). The percent of activity remaining was determined with the untreated samples set at 100%. […] Because F161C lost greater than 90% of enzyme activity within the first 20 minutes at 42° C., shorter incubation periods at 42° C. were performed […].
Low-activity mutant CFT products were diluted 1/5 and incubated for 0, 20, 40, or 60 minutes at 42° C. The preincubated samples were then assayed in triplicate for the thymidine phosphorylation for 60 minutes. The percent of activity remaining was determined using the untreated (time 0) sample as 100%.

[5] = Substrate specificity assay of cell-free translation products, thymidine; assay type: biochemical
Text: as §1, §2

BHK tk = assay: Sensitivity of guanylate kinase transfectant pools to ACV in TK expressing clones; assay type: cell-based, hamster; conditions: guanylate kinase expression in the presence of wild-type TK
Method: pREP8-7, pREP8-7:hgmk and pREP8-7:mgmk are used to transfect BHK tk, TK-transfected clone C3 and 75-transfected clone D4. Histidinol is used to select pools of stable transfectants and to isolate individual clones.
As in Example 8, pools of transfectants are placed in 96 well microtiter dishes at 1000 cells/well. Eight replicates are incubated for three days in the presence of various GCV or ACV concentrations.

[6] = Kinetic analysis of fusion proteins, GMP; assay type: biochemical; conditions: purified protein

Substance | TK activity in time course analysis compared to wild-type [1] | colonies on AZT plates (KY895) | colonies on ACV plates (KY895) | colonies on TK selection plates, 37° C. (KY895) | colonies on TK selection plates, 42° C. (KY895) | colonies on LB plates (KY895) | phosphorylation of deoxycytidine over the wild-type enzyme [2] [fold] | ACV phosphorylation over HSVTKII [3] [fold] | activity loss after 5 minutes at 42° C. ([4]; cell-free translation product) [%] | enzyme activity lost within the first 20 minutes at 42° C. ([4]; cell-free translation product) | phosphorylation of thymidine relative to HSVTKII [5] [fold] | thermal stability after 42° C. preincubation compared to HSVTKII [4] | increased sensitivity to ACV relative to TK expression alone (BHK tk) | Km [6] [µM]
D162E | no difference in activities when compared to the wild-type TK enzyme activities |  |  |  |  |  |  |  |  |  |  |  |  | 
F161C | no difference in activities when compared to the wild-type TK enzyme activities | − | + (fewer (<20% those observed with pMCC) and generally smaller (˜50% smaller diameter) colonies were observed as compared to control plates) | ++ | ++ | ++ | 2.8 | 2 | ~85 | greater than 90% |  |  |  | 
F161I | statistically higher affinity for thymidine than the wild-type TK | + (fewer (<20% those observed with pMCC) and generally smaller (˜50% smaller diameter) colonies were observed as compared to control plates) | + (fewer (<20% those observed with pMCC) and generally smaller (˜50% smaller diameter) colonies were observed as compared to control plates) | ++ | ++ | ++ | 1.9 |  |  |  | 2.2 |  |  | 
F161I/R163H |  | ++ | ++ | ++ | + (fewer (<20% those observed with pMCC) and generally smaller (˜50% smaller diameter) colonies were observed as compared to control plates) | ++ |  |  |  |  |  | equivalent to HSVTKII |  | 
F161L | moderate ability to phosphorylate thymidine, albeit at a much reduced rate from HSVTKII | ++ | ++ | ++ | − | ++ |  |  |  |  |  | more thermolabile that HSVTKII |  | 
Guanylate kinase: guanylate kinase expressed from pREP8-7 constructs in wild-type TK clone C3 (human or murine not stated) |  |  |  |  |  |  |  |  |  |  |  |  | approximately 2 fold | 
P155A/F161V: HSV-1 TK, proline to alanine mutation at position 155 and phenylalanine to valine at position 161 | statistically higher affinity for thymidine than the wild-type TK | + (fewer (<20% those observed with pMCC) and generally smaller (˜50% smaller diameter) colonies were observed as compared to control plates) | ++ | ++ | ++ | ++ | 2.8 | 2.4 |  |  | 2.6 |  |  | 
gmk: wild-type guanylate kinase (murine gmk used in the fusions) |  |  |  |  |  |  |  |  |  |  |  |  |  | 25

Reference: US8163528B2, “Nucleic acid molecules encoding thymidine kinase fusion proteins” (Darwin Molecular Corporation, priority 1997, dated 2012)
